Assay results from patent US10561681B2, “Antimetastatic 2H-selenopheno[3,2-h]chromenes, synthesis thereof, and methods of using same agents” (Latvian Institute of Organic Synthesis, priority 2016, dated 2020).

Test system: Lewis lung carcinoma (LLC)
Experiment: Mouse non-metastatic cancer model, Lewis lung carcinoma s.c. in BALB/c mice
Type: in vivo
Conditions: s.c. Day 1, 2, 3, 4, 7, 8, 9, 10, 11; dose 20 mg/kg, total dose 180 mg/kg
Method: Six-week-old female ICR and BALB/c mice were purchased from the University of Tartu Laboratory Animal Centre (Estonia). The mice were housed five to a cage, and under standard conditions (21-23° C., 12 h light: dark cycle), fed ad libitum (R3 diet, Lactamin AB, Kimstad, Sweden) and observed daily. The experimental procedures involving experimental animals were carried out in accordance with the guidelines of the European Community, local laws and policies, and were approved by the Latvian Animal Protection Ethical Committee, the Food and Veterinary Service, Riga, Latvia.
In vivo studies were performed utilizing the mouse sarcoma CCRF-S180 II (CCL-8) and Lewis lung carcinoma (LLC) cell line. All cell lines were purchased from ATCC. The cells were grown in Dulbecco's modified Eagle's medium (Sigma) supplemented with 10% fetal calf serum (Sigma).
ICR mice were subcutaneously inoculated in the back with 5×10^6 CCL-8 cells and BALB/c mice were inoculated with 1×10^6 LLC (Lewis Lung Carcinoma) cells, which were suspended in 0.1 mL of PBS on day zero of the study. The compounds dissolved in DMSO and then in 0.1 mL water (DMSO final concentration 1%) were injected s.c. Mice in the untreated group were similarly given doses of 0.1 mL of water with DMSO. Tumor volume (tumor volume V=[…], a is maximal and b the minimal tumor diameter) was recorded twice per week. […]

COC(=O)c1cc2ccc3c(Br)c(CN4CCN(C)CC4)[se]c3c2oc1=O [Compound I-10, Methyl 7-bromo-8-((4-methylpiperazin-1-yl)methyl)-2-oxo-2H-selenopheno[3,2-h]chromene-3-carboxylate]
Anticancer activity in vivo (inhibition, %), Lewis Lung Carcinoma primary tumor growth: 34%
